These results are taken from patent publication US12636249B2, “Concentrated injectable tranexamic acid compositions and methods of use thereof” (Galen Limited, priority 2022, dated 2026).

In general, Tmax refers to the time at which the peak concentration occurs. As a reminder, the Cmax is the highest concentration seen after dosing. In general, bioavailability refers to dose-corrected exposure relative to a reference, in per cent. High values mean good availability, low ones poor availability.

The test system of one series is fibrinolysis. The conditions noted are these: in vitro and in vivo pharmacodynamics studies (Picetti et al., 2019); cited from earlier work.
Series [1] in a line: Pharmacokinetics of TXA in swine plasma after IV and IM administration. It counts as in vivo, domestic pigs. The conditions noted are these: for Cmax: read-out: Cmax range; for duration of effective plasma concentration (FIG. 13): effective level about 10 to about 15 ug/ml; for time effective TXA levels are maintained (FIG. 13 legend): target about 15 ug/mL. As for the experimental part: Studies of pharmacokinetics (PK) and pharmacodynamics (PD) of TXA were performed in swine conducted in compliance with Good Laboratory Practice (GLP) standards. All facilities and activities were accredited in accordance with GLP and ISO9001 (2015).
Eighteen domestic pigs were assigned to four test groups. Group 1: Control, IM administered with vehicle (0.9% NaCl, pH 3-4, w/v), two animals were administered 2 mL vehicle, one animal administered 4 mL vehicle.
IM injections were performed using an auto-injector. […] PK analysis was noncompartmental. Following sacrifice, animals were subjected to a full detailed necropsy and histopathological evaluation performed on injection sites and major organs.
Additional blood samples were collected for Complete Blood Count (CBC), biochemistry profile and prothrombin time/partial thromboplastin time (PT/PTT) at baseline, 1, 3, and 72 hr post dosing. For thromboelastographic (TEG) analysis blood was collected at base line, 1, 3 and 6 hr post dosing. The study was conducted over 5 separate dosing sessions. For each session the animals were acclimatized for at least 4 days prior to Central Venous Catheter (CVCs) placement procedure. All animals were sacrificed 72 hours post treatment and were subjected to a full gross necropsy. Organ samples and injection sites were collected for histopathological analysis.
Pharmacokinetic and bioanalytical analysis of Tranexamic acid, based on plasma samples, was performed. On the date of analysis, plasma samples were thawed at room temperature, along with calibration and QC samples. 50 μL of plasma were taken for analysis. Tranexamic acid and its internal standard were separated from pig plasma by protein precipitation. The samples were analyzed by a validated high-performance liquid chromatography-mass spectrometry/mass spectrometry (HPLC-MS/MS) method, using Hilic Silica 3 μm column with an electro-spray interface, in a positive ion mode.

The conditions of series [2]: bleeding trauma patients, cited from earlier work.
For series [3] the following is noted: cited from earlier work.
The conditions of series [4]: adult patients with traumatic cardiac arrest, prehospital administration; cited from earlier work.

Read-outs that look alike come from different tables or passages of the source. Bounds are passed on as bounds.

Take `NC[C@H]1CC[C@H](C(=O)O)CC1` [TXA, trans-4-(aminomethyl) cyclohexanecarboxylic acid]: in the series with fibrinolysis, the “TXA concentration in blood or plasma giving substantial inhibition of fibrinolysis” value is 10 to 15 µg/mL. Further, the AUC(0-inf) in series [1] (pig, plasma, im, 1 g, swine Group 3: 1 g TXA IM, n=5, read-out: AUCINF_pred range) is 81500 to 90300 ng·h/mL; in series [1] (pig, plasma, im, 1 g, swine Group 3: 1 g TXA IM, n=5, read-out: mean AUCINF_pred (converted)) it was 84800 ng·h/mL; in series [1] (pig, plasma, im, 2 g, swine Group 4: 2 g TXA IM, n=5, read-out: AUCINF_pred range), 134000 to 148000 ng·h/mL; in series [1] (pig, plasma, im, 2 g, swine Group 4: 2 g TXA IM, n=5, read-out: mean AUCINF_pred (converted)), 141000 ng·h/mL; in series [1] (pig, plasma, iv, 1 g, swine Group 2: 1 g TXA IV, n=5, read-out: mean AUCINF_pred (converted)) it was 74000 ng·h/mL. For the same compound, the time of peak concentration (Tmax) was 15 to 120 min in series [1] (pig, plasma, im, 1 g, swine Group 3: 1 g TXA IM, n=5, read-out: Tmax range); 44 min in series [1] (pig, plasma, im, 1 g, swine Group 3: 1 g TXA IM, read-out: mean Tmax (converted)); 30 to 60 min in series [1] (pig, plasma, im, 2 g, swine Group 4: 2 g TXA IM, n=5, read-out: Tmax range); 41.8 min in series [1] (pig, plasma, im, 2 g, swine Group 4: 2 g TXA IM, read-out: mean Tmax (converted)); 11 to 12 min in series [1] (pig, plasma, iv, 1 g, swine Group 2: 1 g TXA IV, n=5, read-out: Tmax range); 11.2 min in series [1] (pig, plasma, iv, 1 g, swine Group 2: 1 g TXA IV, read-out: mean Tmax (converted)). For the same compound, the maximum concentration (Cmax) in series [1] (pig, plasma, im, 1 g) was in the range of 20100 to 34800 ng/mL; in series [1] (pig, plasma, im, 2 g), 35700 to 47000 ng/mL; in series [1] (pig, plasma, iv, 1 g), 40900 to 78500 ng/mL. The bioavailability in series [1] (pig, plasma, intramuscular, 1 g) was over 100%. Further, the “mean peak plasma concentration (mean concentration-time curve, FIG. 9)” value in series [1] (swine Group 2, n=5: 1 g TXA IV, 10 mL of 100 mg/mL TRANEX injection pH 6.5-8 over 10 min) was determined as 64 µg/mL; in series [1] (swine Group 3, n=5: 1 g TXA IM, 2 mL of 500 mg/mL formulation A pH 3-4) it was 24.2 µg/mL; in series [1] (swine Group 4, n=5: 2 g TXA IM, 4 mL of 500 mg/mL formulation A pH 3-4) it was 41 µg/mL. Besides, the “time of mean peak plasma concentration” value is 1 min in series [1] (swine Group 2: 1 g TXA IV, time from end of 10 min IV injection); at most 20 min in series [1] (swine Group 3: 1 g TXA IM, post dosing); at most 45 min in series [1] (swine Group 4: 2 g TXA IM, post dosing). Further, the “duration of effective plasma concentration (FIG. 13)” value is “about 130 minutes” in series [1] (swine, 1 g IM TXA); “about 80 minutes” in series [1] (swine, 1 g IV TXA); “about 200 minutes” in series [1] (swine, 2 g IM TXA). Besides, in series [1] (swine, 1 g versus 2 g IM), the dose proportionality entry was “exhibits dose proportionality”. For the same compound, the “time effective TXA levels are maintained (FIG. 13 legend)” value in series [1] (swine, IM administration) is recorded as over 130 min; in series [1] (swine, IV administration), under 105 min. The “bioavailability of IM TXA” value in series [2] (1 gram IM as two 5 ml (0.5 g each) injections) is on record as 77%. Besides, the “tolerability of IM injections” value in series [2] (1 gram IM as two 5 ml injections) is listed as “well-tolerated”. For the same compound, in series [2] (after IM injection of 1 gram), the “time to therapeutic plasma concentrations” value is at most 15 min.
In the case of `OCc1ccccc1` [benzyl alcohol], the cutaneous anesthesia entry in series [3] (intradermal 1 ml 0.9% benzyl alcohol with epinephrine) is on record as “prolonged cutaneous anesthesia”. For the same compound, the pain on injection result in series [3] (versus lidocaine with epinephrine) is reported as “significantly less painful on injection”.
As to `CNC[C@H](O)c1ccc(O)c(O)c1` [epinephrine], in series [4], the short-term survival entry is listed as “increased short-term survival”.
